Reference: patent US9828357B2, “Cyclic compounds” (Takeda Pharmaceutical Company Limited, priority 2015, dated 2017)

System: TLR4 signal
Experiment: Inhibitory effect on TNFα production from HMGB-1 stimulated human Kupffer cell
Assay type: cell-based
Details: human primary Kupffer cells, HMGB-1 10 μg/mL, 24 hr
Protocol: TLR4 signal inhibitory activity in human Kupffer cell was evaluated as an inhibition rate of the test compound for TNFα produced by addition of HMGB-1 (SHINO-TEST), using human primary Kupffer cells (Cat# HUKCCS, Lot#HK8226) purchase from GIBCO. Cell suspension prepared in RPMI 1640-Gluta MAX™ medium supplemented with 10% inactivated bovine fetal serum was plated in 96-well I-type collagen-coated plate so as to contain 3.1×10^4 cells/100 μL/well. Then, the cells were cultured for 6 hr at 37° C. under 5% CO2/95% air to be adhered to the bottom of the plate. The non-adhered cells were rinsed off with PBS, and the test compound dissolved in DMSO was added to the adhered cells (final concentration: 1, 10, 100 nM), and the mixture was cultured for 1 hr. Then, HMGB-1 was added thereto (final concentration: 10 μg/mL), and the mixture was incubated for additional 24 hr. TNFα production amount contained in the culture supernatant was quantified by ELISA method (R&D systems). TNFα production inhibition rate (%) was calculated using the value under the HMGB-1-free condition as control of 100% inhibition and the value under the compound-free condition as control of 0% inhibition.

CCOC(=O)C1=CC2(CC[C@H]1S(=O)(=O)[C@H]1CCc3cccc(Cl)c31)O[C@H](CO)[C@@H](CO)O2 [Compound 6, Ethyl (2R,3R,8R)-8-(((1S)-7-chloro-2,3-dihydro-1H-inden-1-yl)sulfonyl)-2,3-bis(hydroxymethyl)-1,4-dioxaspiro[4.5]dec-6-ene-7-carboxylate]
TNFα production inhibition rate (% inhibition) (compound concentration 1 nM): 45 % inhibition | TNFα production inhibition rate (% inhibition) (compound concentration 10 nM): 82 % inhibition | TNFα production inhibition rate (% inhibition) (compound concentration 100 nM): 85 % inhibition
